Publication PMC12157728, “Green and Efficient Synthetic Protocol for 1,3,5-Triazine Derivatives with Anticancer Potential Against Colorectal Cancer” (Molecules, 2025)
Read-outs that look alike come from different tables or passages of the source.

Legend:
[1] = Phospholipid affinity by IAM-HPLC (IAM.PC.DD2 column); type: physicochemical; settings: pH 7.4, phospholipidosis threshold >50
Excerpt: (§1) All chromatographic experiments adhered to the protocols established by Valko and colleagues, which were implemented in our laboratory. Essentially, biochromatography facilitated the assessment of lipophilicity and phospholipid affinity, represented as Chromatographic Hydrophobicity Index (CHI) values, through a gradient elution experiment, comparing results with model substances. The Prominence-1 LC-2030C 3D HPLC system, operated via LabSolution software (v6.81, Kyoto, Japan), was utilized for all chromatographic analyses. Throughout the research, distinct chromatographic columns were employed: IAM.PC.DD2 (10 × 4.6 mm × 10.0 µm with a guard column; Regis Technologies; USA) and C18 Hypersil GOLD^TM (100 mm × 4.6 mm; 5.0 µm with a guard column; Thermo Scientific, Waltham, MA, USA). Each column was paired with guard columns featuring the same stationary phases as the main column. Mobile phase A consisted of a water solution of 50 mM ammonium acetate (VWR International, Leuven, Belgium), adjusted to physiological pH 7.4 using concentrated ammonia solution (Avantor Performance Materials Poland S.A., Gliwice, Poland). The mobile phase was prepared with ultrapure water from a Milli-Q water purification system (Merck Millipore, Darmstadt, Germany), achieving a resistivity of 18.2 MΩ. For phospholipid binding assessments, mobile phase B was HPLC grade acetonitrile (Chempur, Piekary Śląskie, Poland), with a linear gradient from 0 to 85% B over 5.25 min, then maintained at 85% ACN for 0.5 min. The mobile phase was delivered at a flow rate of 1.5 mL/min, with the IAM.PC.DD2 column temperature held steady at 30 °C. For lipophilicity evaluations, the solvents and flow rate mirrored those used in IAM chromatography. The C18 Hypersil GOLD^TM column was kept at 40 °C. Similarly, a linear gradient was applied from 0 to 5.25 min, but, in this instance, it ranged from 2 to 98% ACN, with the maximum phase B concentration sustained for 2.5 min. Dimethyl sulfoxide (Avantor Performance Materials Poland S.A., Poland) was employed to dissolve the target solutes, forming a solution with a concentration of 200 µg/mL. Detection occurred in the UV region at a wavelength of 190–300 nm. The injection volume was 5 μL, and each compound was analyzed in duplicate, with retention time variation below 0.5%. Retention times for the studied molecules and reference standards are detailed in the Supplementary Material, Tables S1 and S2.

SW620 = test: MTS cytotoxicity assay, SW620 colorectal cancer cells; type: cell-based, human; settings: for IC50: Homo sapiens, SW-620, MTS, 24 h incubation, n = 3, >100 = no detectable effect at highest concentration, * = IC50 could not be determined (high variability or no consistent dose-response), read-out: Cytotoxicity IC50 ± SD, SW620
Protocol: (§2) The human colorectal cancer cell lines SW620, SW480 were obtained from the American Type Culture Collection (ATCC). Both cell lines were cultured in Dulbecco’s Modified Eagle Medium (DMEM) (Capricorn Scientific GmbH, Manassas, USA), which was supplemented with 10% fetal bovine serum (FBS) and 50 µg/mL of gentamicin. Cells were incubated at 37 °C in a humidified atmosphere containing 5% CO₂. The cultures were passaged approximately every three days upon reaching confluence using a 0.25% trypsin-EDTA solution, at a ratio of approximately 1:3 to 1:4. For the MTS assay, cells were seeded at a density of 10,000 cells per well in 96-well plates. After 24 h, compounds were added at five concentrations ([…]), and cells were incubated for an additional 24 h. Cytotoxicity was assessed using the CellTiter 96® AQueous One Solution Cell Proliferation Assay (Promega), following the manufacturer’s instructions. Absorbance was measured at 490 nm using a microplate reader.
(§3) The IC₅₀ values were determined relative to the untreated control cells (without test compounds). All experiments were performed in triplicate (n = 3). Compounds for which IC₅₀ values could not be reliably determined were excluded from quantitative analysis. […] Such compounds are reported as ‘>100µM’ or ‘>100µM*’, respectively, in the results.

SW480 = test: MTS cytotoxicity assay, SW480 colorectal cancer cells; type: cell-based, human; settings: for IC50: MTS, 24 h incubation, n = 3, >100 = no detectable effect at highest concentration, * = IC50 could not be determined (high variability or no consistent dose-response), read-out: Cytotoxicity IC50 ± SD, SW480
Protocol: as §2, §3

[2] = Lipophilicity by gradient RP-HPLC (C18, pH 7.4): CHI, chrom logD, PFI; type: physicochemical; parameters: key to PFI (Property Forecast Index): PFI = Chrom logD7.4 + number of aromatic rings; settings: for chromatographic logD: C18 Hypersil GOLD reversed-phase HPLC column, pH 7.4, C18 column; for chromatographic logD / chrom logD (RP-HPLC): pH 7.4, Chrom logD = 0.0525 × CHI − 1.467; for CHI C18: C18 at pH 7.4; for chrom logD (RP-HPLC): C18 column; for PFI (Property Forecast Index): PFI = Chrom logD7.4 + #Ar, threshold 7
Excerpt: as §1
Experimentally determined CHI values were converted to chrom logD using the following equation [53]:Chrom logD = 0.0525 × CHI − 1.467(1)
In addition, the Property Forecast Index (PFI), the sum of the number of aromatic rings(#Ar), and a lipophilicity measure are used to reflect the principle of simultaneous minimization of lipophilicity and aromaticity, which supports the selection of oral clinical candidates in GKS [47].PFI = Chrom logD7.4 + #Ar(2)

In the case of `Cl.Fc1ccc(N2CCN(CCNc3nc(Nc4ccccc4Cl)nc(N4CCOCC4)n3)CC2)cc1` [Compound 7, N^2-(2-chlorophenyl)-N^4-(2-(4-(4-fluorophenyl)piperazin-1-yl)ethyl)-6-morpholino-1,3,5-triazine-2,4-diamine hydrochloride], the “CHI IAM (IAM-HPLC)” value [1] is reported as 49.59, the “Cytotoxic activity in words, SW620” value (SW620) is reported as “limited cytotoxic potential” and the “Cytotoxic activity in words, SW480” value (SW480) is reported as “limited cytotoxic potential”. For the same molecule, the IC50 (SW480; Homo sapiens) was greater than 100 µM, the chromatographic logD [2] was 4.44 and the “CHI C18” value [2] was 112.6. The “chrom logD (RP-HPLC)” value [2] was 4.443 and the “PFI (Property Forecast Index)” value [2] was 7.44.
In the case of `Cl.Clc1ccccc1Nc1nc(N2CCOCC2)nc(N2CCN(c3ccccc3)CC2)n1` [Compound 8, N-(2-chlorophenyl)-4-morpholino-6-(4-phenylpiperazin-1-yl)-1,3,5-triazin-2-amine hydrochloride], the “CHI IAM (IAM-HPLC)” value [1] is reported as 47.79, the IC50 (SW480; Homo sapiens) is reported as 20.6 ± 24.9 µM and the chromatographic logD [2] is reported as 4.15. For the same molecule, the “CHI C18” value [2] was 107, the “chrom logD (RP-HPLC)” value [2] was 4.148 and the “PFI (Property Forecast Index)” value [2] was 7.15.
With `Cl.Clc1ccccc1Nc1nc(NCCNc2ccccc2)nc(N2CCOCC2)n1` [Compound 10, N^2-(2-chlorophenyl)-6-morpholino-N^4-(2-(phenylamino)ethyl)-1,3,5-triazine-2,4-diamine hydrochloride] the “CHI IAM (IAM-HPLC)” value [1] was 44.55, the “Cytotoxic activity in words, SW620” value (SW620) was “limited cytotoxic potential” and the “Cytotoxic activity in words, SW480” value (SW480) was “limited cytotoxic potential”. The IC50 (SW480; Homo sapiens) was greater than 100 µM, the chromatographic logD [2] was 3.94 and the “CHI C18” value [2] was 102.9. The “chrom logD (RP-HPLC)” value [2] was 3.936 and the “PFI (Property Forecast Index)” value [2] was 6.94.
For `Cl.Clc1ccccc1Nc1nc(N2CCOCC2)nc(N2CCN(c3nsc4ccccc34)CC2)n1` [Compound 9, 4-(4-(benzo[d]isothiazol-3-yl)piperazin-1-yl)-N-(2-chlorophenyl)-6-morpholino-1,3,5-triazin-2-amine hydrochloride], the “CHI IAM (IAM-HPLC)” value [1] was 48.02, the “Cytotoxic activity in words, SW620” value (SW620) was “some activity” and the IC50 (SW620) was 22.1 ± 17.3 µM. The “Cytotoxic activity in words, SW480” value (SW480) was “inactive”, the IC50 (SW480; Homo sapiens) was greater than 100 µM and the chromatographic logD [2] was 4.23. The “CHI C18” value [2] was 108.4, the “chrom logD (RP-HPLC)” value [2] was 4.226 and the “PFI (Property Forecast Index)” value [2] was 7.23.
With `Cl.Clc1ccccc1Nc1nc(NCCc2ccccc2)nc(N2CCOCC2)n1` [Compound 3, N^2-(2-chlorophenyl)-6-morpholino-N^4-phenethyl-1,3,5-triazine-2,4-diamine hydrochloride] the “CHI IAM (IAM-HPLC)” value [1] was 55.97, the “Cytotoxic activity in words, SW620” value (SW620) was “limited cytotoxic potential” and the IC50 (SW620) was greater than 100 µM. The “Cytotoxic activity in words, SW480” value (SW480) was “limited cytotoxic potential”, the IC50 (SW480; Homo sapiens) was greater than 100 µM and the chromatographic logD [2] was 3.95. The “chrom logD (RP-HPLC)” value [2] was 3.947.
For `Cl.Clc1ccccc1Nc1nc(Nc2ccccc2)nc(N2CCOCC2)n1` [Compound 4, N^2-(2-chlorophenyl)-6-morpholino-N^4-phenyl-1,3,5-triazine-2,4-diamine hydrochloride], the “CHI IAM (IAM-HPLC)” value [1] was 46.34, the IC50 (SW620) was 36.1 ± 46.5 µM and the IC50 (SW480; Homo sapiens) was greater than 100 µM. The chromatographic logD [2] was 4.1, the “CHI C18” value [2] was 106 and the “chrom logD (RP-HPLC)” value [2] was 4.098. The “PFI (Property Forecast Index)” value [2] was 7.10.
For `O=c1[nH]cc(F)c(=O)[nH]1` [5-fluorouracil, reference compound], the IC50 (SW620) was 21.7 ± 2.75 µM and the IC50 (SW480; Homo sapiens) was 15.5 ± 7.83 µM.
For `Cl.Clc1ccccc1Nc1nc(NCc2ccccc2)nc(N2CCOCC2)n1` [Compound 5, N^2-benzyl-N^4-(2-chlorophenyl)-6-morpholino-1,3,5-triazine-2,4-diamine hydrochloride], the “CHI IAM (IAM-HPLC)” value [1] was 46.45, the IC50 (SW620) was 32.8 ± 23.4 µM and the IC50 (SW480; Homo sapiens) was 43.1 µM. For the same molecule, the IC50 (SW480) was 43.4 ± 12.2 µM, the chromatographic logD [2] was 3.95 and the “CHI C18” value [2] was 103.1. The “chrom logD (RP-HPLC)” value [2] was 3.947 and the “PFI (Property Forecast Index)” value [2] was 6.95.
In the case of `Cl.Clc1ccccc1Nc1nc(NCCCc2ccccc2)nc(N2CCOCC2)n1` [Compound 6, N^2-(2-chlorophenyl)-6-morpholino-N^4-(3-phenylpropyl)-1,3,5-triazine-2,4-diamine hydrochloride], the “CHI IAM (IAM-HPLC)” value [1] is reported as 51.63, the “Cytotoxic activity in words, SW620” value (SW620) is reported as “limited cytotoxic potential” and the IC50 (SW620) is reported as greater than 100 µM. For the same molecule, the “Cytotoxic activity in words, SW480” value (SW480) was “limited cytotoxic potential”, the IC50 (SW480; Homo sapiens) was greater than 100 µM and the chromatographic logD [2] was 4.71. The “CHI C18” value [2] was 117.6, the “chrom logD (RP-HPLC)” value [2] was 4.706 and the “PFI (Property Forecast Index)” value [2] was 7.71.
In the case of `Cl.Clc1ccccc1Nc1nc(NCCOc2ccccc2)nc(N2CCOCC2)n1` [Compound 11, N^2-(2-chlorophenyl)-6-morpholino-N^4-(2-phenoxyethyl)-1,3,5-triazine-2,4-diamine hydrochloride], the “CHI IAM (IAM-HPLC)” value [1] is reported as 45.92, the IC50 (SW620) is reported as 5.85 ± 14.3 µM and the chromatographic logD [2] is reported as 4.01. For the same molecule, the “CHI C18” value [2] was 104.4, the “chrom logD (RP-HPLC)” value [2] was 4.012 and the “PFI (Property Forecast Index)” value [2] was 7.01.
